Measured values from EP3811940B1, “SUBSTITUTED 4,5'-BITHIAZOLES AS INHIBITORS OF THE HUMAN DNA TOPOISOMERASE II” (Kemijski Institut, priority 2019, dated 2021).

Assays:
human topo IIα [1] = target: T1, human topo IIα (Homo sapiens, UniProt P11388); assay: HTS relaxation assay of human topo IIα; assay type: biochemical; settings: screening at 7.8, 31.5, 125 and 500 µM
T1 construct: purchased Inspiralis (Norwich, UK)
Method: The 14 selected compounds from the class of substituted 4,5'-bithiazoles were experimentally assayed if they inhibit catalytic activity of human topo IIα using an established high-throughput screening (HTS) relaxation assay for human topo IIα [24].
The HTS assays primarily served to select compounds for further evaluation.
Plate was rehydrated using wash buffer (20 mM Tris-HCl (pH = 7.6), 137 mM NaCl, 0.005 % (w/v) BSA, 0.05 % (v/v) TWEEN-20®) and biotinylated oligonucleotide was immobilized onto the wells. Next, the excess oligonucleotide was washed off with wash buffer. Enzyme assay was carried out in reaction volume of 30 µL using 0.75 µg supercoiled plasmid pNO1 as a substrate and human topo IIα. Enzyme was diluted to the appropriate concentration with dilution buffer comprised of 50 mM Tris-Hcl (pH = 7.5), 100 mM NaCl, 1 mM DTT, 0.5 mM EDTA, 50 % (v/v) glycerol and 50 µg/mL albumin. Tested compounds (0.3 µL) were added as a stock solution in DMSO and final concentration of DMSO was 1 %, respectively. Reactions were incubated at 37 °C for 30 min, and TF buffer (50 mM NaOAc (pH = 5.0), 50 mM NaCl, 50 mM MgCl2) was added to the wells and incubated at room temperature for additional 30 min to allow the triplex biotin-oligonucleotid-plasmid formation. To eliminate the aggregation and non-specific inhibition a surfactant (TWEEN-20®) was added to the reaction mixture. Unbound plasmid was washed off with TF buffer and stained with the DNA-detection Dye in the T10 buffer (10 mM Tris-HCl (pH = 8) and 1 mM EDTA) was added. After mixing, fluorescence was read using Tecan fluorimeter (Excitation: 485 nm and Emission: 535 nm). Screening was performed at the inhibitor concentrations of 7.8, 31.5, 125 and 500 µM. IC50 values were calculated using GraphPad Prism 6.0 software and represent the concentrations of inhibitors where residual activity of the enzyme was 50 % [24].

human topo IIα [2] = target: T1, human topo IIα; assay: kDNA decatenation assay catalysed by human topo IIα; assay type: biochemical; settings: for % Decatenated Assay 1 / % Decatenated Assay 2: % of decatenated kDNA; for % Decatenated Average: average of two assays
Method: One U of human topo II (α or β) was incubated with 200 ng kDNA in a 30 µL reaction at 37°C for 30 minutes under the following conditions: 50 mM Tris HCl (pH 7.5), 125 mM NaCl, 10 mM MgCl2, 5 mM DTT, 0.5 mM EDTA, 0.1 mg/ml bovine serum albumin (BSA) and 1 mM ATP. Compounds 1 and 9 were serially diluted in DMSO and added to the reaction mixture before the addition of the enzyme. […] Each reaction was then stopped by the addition of 30 µL chloroform/iso-amyl alcohol ([…]) and 30 µL Stop Dye (40 % sucrose (w/v), 100 mM Tris.HCl (pH 7.5), 10 mM EDTA, 0.5 µg/mL bromophenol blue), before being loaded on a 1% TAE gel run at 85 V for 90 minutes. Assays were performed at 4 concentrations of ligand: 3.9, 31.5, 125 and 500 µM. The final DMSO concentration in all reactions was 1 % (v/v).
Bands were visualized by the ethidium bromide staining for 15 minutes and destaining for subsequent 10 minutes. Gels were scanned using the documentation equipment (GeneGenius, Syngene, Cambridge, UK) and inhibition levels were calculated from band data obtained with gel scanning software (GeneTools, Syngene, Cambridge,UK). Experiment was performed in duplicates for all compounds.

human topo IIα [3] = target: T1, human topo IIα; assay: ATP hydrolysis (ATPase) assay coupled to NADH oxidation; assay type: biochemical
Method: To investigate if our compounds can inhibit the ATP hydrolysis, catalysed by human topo IIα, first ATP hydrolysis assay was performed for compound 1. This assay is coupled to the oxidation of NADH, which was indicated by the decrease of optical density at 340 nm. Etoposide was used as a control compound.
Compounds were analyzed using a linked assay in which the ADP produced by the hydrolysis of ATP leads to conversion of NADH to NAD by a pyruvate kinase/lactate dehydrogenase mix. The disappearance of NADH is monitored at 340 nm. A mix of assay buffer (5 µL of 10X buffer per assay: final conc. 20 mM Tris-HCl, 5 mM magnesium acetate, 125 mM potassium acetate, 2 mM DTT, pH 7.9), linear pBR322 (1.5 µL of 1mg/mL per assay), phosphoenol pyruvate (0.5 µL of 80 mM per assay), pyruvate kinase/lactate dehydrogenase mix (0.75 µL per assay), NADH (1 µL of 20 mM per assay) and water (34.35 µL per assay) was made. 41.1 µL was aliquoted into the wells of a 384-well microtitre plate. […] 5 µL of the dilution buffer or human topo IIα (200 nM stock giving 12 nM final concentration) were then added and mixed. The change in OD340 was then measured in a plate reader over a period of about 10 minutes (called the prerun). 3.4 µL of 30 mM ATP was then added and the OD340 monitored for up to 30 minutes. Assays were performed at 37 °C. The final DMSO concentration in all the reactions was 1 % (v/v). Assays were performed at 3.9, 31.5, 125, and 500 µM final concentrations of the investigated compound 1. Compound were serially diluted in DMSO and added to the reaction before the addition of the enzyme. Control compound for was Etoposide. Determination if compound 1 from class of substituted 4,5'-bithiazoles inhibits ATPase activity of human topo II enzyme was performed in collaboration with Inspiralis.

[4] = target: T2, human topo IIα ATPase domain (Homo sapiens, UniProt P11388); assay: microscale thermophoresis (MST) binding; settings: three independent runs; initial fluorescence; labelled protein 20 nM
T2 construct: The ATPase fragment with 1-453 amino acid residues was purchase from Inspiralis; purchased Inspiralis
T2 sequence (P11388 1-453): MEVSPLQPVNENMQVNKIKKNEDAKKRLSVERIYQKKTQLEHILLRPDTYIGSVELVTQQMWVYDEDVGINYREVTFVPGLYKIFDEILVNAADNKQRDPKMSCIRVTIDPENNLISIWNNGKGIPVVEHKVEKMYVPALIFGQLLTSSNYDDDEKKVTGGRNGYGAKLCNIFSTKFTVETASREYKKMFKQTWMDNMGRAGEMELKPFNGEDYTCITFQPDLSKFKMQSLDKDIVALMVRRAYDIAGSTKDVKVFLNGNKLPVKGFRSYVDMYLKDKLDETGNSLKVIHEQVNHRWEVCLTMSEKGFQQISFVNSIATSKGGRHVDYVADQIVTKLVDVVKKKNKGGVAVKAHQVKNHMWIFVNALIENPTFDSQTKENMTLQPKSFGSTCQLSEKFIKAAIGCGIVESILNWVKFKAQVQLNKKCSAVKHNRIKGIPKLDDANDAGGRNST
Text: Figure 2. […] The graph shown is representative of two independent experiments.

T1 sequence (P11388 whole entry): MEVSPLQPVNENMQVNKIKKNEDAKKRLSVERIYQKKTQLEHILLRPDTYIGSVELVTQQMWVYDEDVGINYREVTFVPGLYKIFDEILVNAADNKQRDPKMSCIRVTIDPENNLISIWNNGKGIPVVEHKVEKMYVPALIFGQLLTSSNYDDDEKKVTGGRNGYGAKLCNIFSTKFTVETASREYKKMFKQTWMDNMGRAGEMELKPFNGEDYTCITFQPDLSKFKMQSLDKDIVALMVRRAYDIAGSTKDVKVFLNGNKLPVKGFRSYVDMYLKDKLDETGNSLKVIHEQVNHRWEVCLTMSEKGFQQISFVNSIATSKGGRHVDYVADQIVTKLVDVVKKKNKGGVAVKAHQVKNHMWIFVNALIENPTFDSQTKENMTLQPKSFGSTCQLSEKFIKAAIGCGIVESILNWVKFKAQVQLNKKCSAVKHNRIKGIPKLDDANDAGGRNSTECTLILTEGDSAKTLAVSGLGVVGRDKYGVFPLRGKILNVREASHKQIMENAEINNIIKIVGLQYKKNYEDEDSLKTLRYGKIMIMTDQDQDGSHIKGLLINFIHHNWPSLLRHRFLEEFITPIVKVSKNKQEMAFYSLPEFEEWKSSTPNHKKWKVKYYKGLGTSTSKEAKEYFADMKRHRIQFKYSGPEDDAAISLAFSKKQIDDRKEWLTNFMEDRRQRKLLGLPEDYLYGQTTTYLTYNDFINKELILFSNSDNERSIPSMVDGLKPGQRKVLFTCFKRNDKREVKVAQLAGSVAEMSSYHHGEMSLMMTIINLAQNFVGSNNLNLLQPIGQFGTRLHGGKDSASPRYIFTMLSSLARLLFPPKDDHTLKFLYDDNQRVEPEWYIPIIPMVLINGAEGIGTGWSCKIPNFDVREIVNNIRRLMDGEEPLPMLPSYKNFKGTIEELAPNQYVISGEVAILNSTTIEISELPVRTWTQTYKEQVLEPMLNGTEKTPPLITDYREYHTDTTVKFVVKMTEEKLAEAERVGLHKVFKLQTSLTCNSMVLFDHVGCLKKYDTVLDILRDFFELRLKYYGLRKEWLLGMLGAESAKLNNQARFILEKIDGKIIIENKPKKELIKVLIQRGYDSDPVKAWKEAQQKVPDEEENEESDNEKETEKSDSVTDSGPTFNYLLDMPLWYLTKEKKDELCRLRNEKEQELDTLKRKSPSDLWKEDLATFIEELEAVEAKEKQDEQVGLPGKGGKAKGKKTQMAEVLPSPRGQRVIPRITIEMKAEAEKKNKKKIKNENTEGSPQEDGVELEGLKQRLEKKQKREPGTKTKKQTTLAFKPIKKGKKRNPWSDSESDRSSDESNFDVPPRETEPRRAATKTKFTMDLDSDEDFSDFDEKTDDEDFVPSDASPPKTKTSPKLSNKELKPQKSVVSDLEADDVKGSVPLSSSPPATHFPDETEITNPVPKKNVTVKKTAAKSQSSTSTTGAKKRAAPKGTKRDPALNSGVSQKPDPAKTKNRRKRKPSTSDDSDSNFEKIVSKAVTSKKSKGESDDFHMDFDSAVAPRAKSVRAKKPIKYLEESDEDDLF

SMILES | IC50 (human topo IIα [1]) [µM] | % Decatenated Assay 1 (human topo IIα [2]; 3.9 µM) [%] | % Decatenated Assay 2 (human topo IIα [2]; 3.9 µM) [%] | % Decatenated Average (human topo IIα [2]; 3.9 µM) [%] | % Decatenated Assay 1 (human topo IIα [2]; 31.5 µM) [%] | % Decatenated Assay 2 (human topo IIα [2]; 31.5 µM) [%] | % Decatenated Average (human topo IIα [2]; 31.5 µM) [%] | % Decatenated Assay 1 (human topo IIα [2]; 125 µM) [%] | % Decatenated Assay 2 (human topo IIα [2]; 125 µM) [%] | % Decatenated Average (human topo IIα [2]; 125 µM) [%] | % Decatenated Assay 1 (human topo IIα [2]; 500 µM) [%] | % Decatenated Assay 2 (human topo IIα [2]; 500 µM) [%] | % Decatenated Average (human topo IIα [2]; 500 µM) [%] | inhibition at 125 µM (human topo IIα [3]; first parallel) [%] | inhibition at 125 µM (human topo IIα [3]; second parallel) [%] | also measured
Cc1nc(N)sc1-c1csc(Nc2ccc(C(F)(F)F)cc2)n1 [Compound 1, 4'-methyl-N2-(4-(trifluoromethyl)phenyl)-[4,5'-bithiazole]-2,2'-diamine] | 33.4 | 100 | 91 | 95.5 | 72.4 | 89.4 | 80.5 | 0 | 0 | 0 | 0 | 0 | 0 | 75 | 85 | inhibition at 31.5 µM (human topo IIα [2]; 31.5 µM): 19.1%; % of inhibition of decatenation (human topo IIα [2]; 125 µM): full inhibition; % of inhibition of decatenation (human topo IIα [2]; 500 µM): full inhibition; Kd [4]: 50.6 ± 7.6 µM
COc1cc([C@@H]2c3cc4c(cc3[C@@H](O[C@@H]3O[C@@H]5CO[C@@H](C)O[C@H]5[C@H](O)[C@H]3O)[C@H]3COC(=O)[C@H]23)OCO4)cc(OC)c1O [Etoposide, etoposide, reference compound] |  |  |  |  |  |  |  |  |  |  |  |  |  | 70 | 63 | 
CC(=O)Nc1ccc(Nc2nc(-c3sc(NC(C)=O)nc3C)cs2)cc1 [Compound 9, N-(4-((2'-acetamido-4'-methyl-[4,5'-bithiazol]-2-yl)amino)phenyl)acetamide] | 60 | 98.7 | 99.2 | 98.9 | 99.4 | 97.9 | 98.7 | 89.5 | 86.7 | 88.1 | 34 | 31.3 | 32.7 |  |  | inhibition at 125 µM (human topo IIα [2]; 125 µM): 11.9%; inhibition at 500 µM (human topo IIα [2]; 500 µM): 67.3%
